# Measurements taken from patent US20190010547A1 (Medizinische Universität Innsbruck, priority 2015, published 2019).
# “Also recorded” adds a separate entry of the source.
# Legend:
# [1] = ASCOT participants, atorvastatin 10 mg/day vs placebo, baseline vs 1 year
# serum miR-122 [2] = settings: ASCOT participants (n=155), atorvastatin 10 mg/day vs placebo, baseline vs 1 year
# serum miR-122 [3] = assay: Statin treatment of mice: serum miR-122; settings: C57BI/6 mice, 20 mg/kg atorvastatin intraperitoneally once a day for five days
# miR-122 = assay: AntagomiR treatment of mice: liver miR-122 by Northern blotting and quantitative PCR; assay type: in vivo; settings: mouse liver
# Method: (§1) Liver and serum samples were harvested for analysis.
# MiRNA expression was assessed by Northern blot analysis as previously described (Suárez, Circ Res 2007, 100: 1164-73). Briefly, total RNA (5 μg) was separated on a 15% acrylamide TBE 8M urea gel and blotted onto a Hybond N+ nylon filter (Amersham Biosciences). […] ATP and […] polynucleotide kinase (New England Biolabs) to generate high-specific activity probes. Hybridization was carried out according to the ExpressHyb (Clontech) protocol. Following overnight membrane hybridization with specific radiolabeled probes, membranes were washed once for 30 min at 42° C. in 4×SSC/0:5% SDS and subjected to autoradiography. Blots were re-probed for 5S rRNA to control for equal loading: 5′-[…]-3′
# Total RNA was isolated from liver and hepatocyte samples using TRIzol reagent (Invitrogen) according to the manufacturer's protocol. For mRNA quantification, cDNA was synthesized using iScript RT Supermix (Bio-Rad), following the manufacturer's protocol. qRT-PCR analysis was performed in triplicate using iQ SYBR green Supermix (BioRad) on an iCycler Real-Time Detection System (Eppendorf). […] For miRNA quantification, total RNA was reverse transcribed using the miScript II RT Kit (Qiagen). […] 1 μg of total RNA was reverse transcribed and gene/miRNA expression assessed as above.
# miR-33 = assay: AntagomiR treatment of mice: hepatic miR-33 expression; assay type: in vivo; settings: mouse liver, antagomiR-122 vs control antagomiRs, 65 mg/kg i.p. x3 days, day 7
# Method: as §1
# (§2) Total RNA was isolated from liver and hepatocyte samples using TRIzol reagent (Invitrogen) according to the manufacturer's protocol. For mRNA quantification, cDNA was synthesized using iScript RT Supermix (Bio-Rad), following the manufacturer's protocol. qRT-PCR analysis was performed in triplicate using iQ SYBR green Supermix (BioRad) on an iCycler Real-Time Detection System (Eppendorf). The mRNA level was normalized to GAPDH or 18S as a house keeping gene (see primer sequence in Table 2). For miRNA quantification, total RNA was reverse transcribed using the miScript II RT Kit (Qiagen). […] For mouse tissues, total liver RNA from WT mice fed a HFD were isolated using the Bullet Blender Homogenizer (Next Advance) in TRIzol. 1 μg of total RNA was reverse transcribed and gene/miRNA expression assessed as above.
# [4] = AntagomiR treatment of mice: serum cholesterol; assay type: in vivo; settings: antagomiR-122 vs control antagomiRs, 65 mg/kg i.p. x3 days, day 7
# Method: as §1
# Blood samples were collected by retro-orbital venous plexus puncture after a 12 h overnight fast for lipid analysis. Plasma was separated by centrifugation and stored at 4° C. Total and HDL cholesterol in each sample was enzymatically measured using the T-Cholesterol and HDL-C Assay Kits (Wako Diagnostics).
# [5] = test system: genes implicated in cholesterol and lipid metabolism (ACC1, CTP1, FAS, SCD1, MTTP, SREBP1); assay: AntagomiR treatment of mice: liver expression of genes implicated in cholesterol and lipid metabolism (qRT-PCR); assay type: in vivo; settings: mouse liver mRNA, antagomiR-122 65 mg/kg i.p. x3 days, day 7
# Method: as §1, §2
# hepatitis C virus = settings: 36 patients with chronic hepatitis C genotype 1 infection, Phase 2a (Janssen, N Engl J Med 2013); cited from earlier work
molecule,measurement,setting,value
CC(C)c1c(C(=O)Nc2ccccc2)c(-c2ccccc2)c(-c2ccc(F)cc2)n1CC[C@@H](O)C[C@@H](O)CC(=O)O [atorvastatin],total cholesterol,[1],concordant reduction
same,serum miR-122 levels,serum miR-122 [2],reduced circulating miR-122 levels; also recorded: concordant reduction
same,serum miR-122,serum miR-122 [3],reduction of miR-122; also recorded: reduced serum miR-122
C*A*AACACCAUUGUCACACU*C*C*A*Chol*-T [antagomiR-122],liver miR-122 expression,"miR-122; Northern blotting / qPCR, 65 mg/kg i.p. on three consecutive days, day 7, n=5 per group, 65 mg/kg",almost complete inhibition of miR-122 expression; also recorded: reduction of liver miR-122
same,relative amount of miR-122 in antagomiR-122 group,"miR-122; quantitative PCR, 65 mg/kg intraperitoneally on three consecutive days, sacrificed at day 7, vs control antagomiRs, mean (standard deviation)",0.13%+/−0.06%
same,hepatic expression of miR-33,miR-33,attenuated; also recorded: reduction of miR-33
same,serum cholesterol concentration,[4],lower cholesterol levels; also recorded: reduction in serum cholesterol concentration
same,expression of genes implicated in lipid metabolism (de novo lipogenesis and lipoprotein assembly),[5],down-regulation of enzymes implicated in lipid metabolism
miravirsen,hepatitis C virus RNA levels,hepatitis C virus,reduced hepatitis C virus RNA levels in a dose-dependent manner
